This series can be described thus: Solubility of the compound in water at room temperature. It is filed as physicochemical. The note with it: room temperature (25° C.). On the procedure: 23.5 g of perfluoro(3-dibutylaminopropionic acid) was neutralized with 1.5 g of calcium hydroxide in a methanol/water mixed solution. The precipitated crystals were separated by filtration, and dried at 100° C., whereby 23.5 g of perfluoro(3-dibutylaminopropionic acid) calcium represented by the following formula (376) was obtained (yield of 97%). The solubility of the present compound in water at room temperature (25° C.) was 2 [g/100 g-H2O].
15.0 g of perfluoro(3-dibutylaminopropionic acid) obtained in the same manner as in Synthesis Example 1 was neutralized with 1.2 g of magnesium hydroxide in a methanol/water mixed solution. Next, the precipitated crystals were separated by filtration, and by extracting with methanol, a magnesium salt was obtained. The methanol was distilled off, whereby 14.4 g of perfluoro(3-dibutylaminopropionic acid) magnesium represented by the following formula (379) was obtained (yield of 94%). The solubility of the present compound in water at room temperature was 0.009 [g/100 g-H2O].
15.0 g of perfluoro(3-dibutylaminopropionic acid) obtained in the same manner as in Synthesis Example 1 was neutralized with 4.0 g of barium hydroxide octahydrate in a methanol/water mixed solution. […]

The structures appear in SMILES notation.

In the case of `O=C(O)C(F)(F)C(F)(F)N(C(F)(F)C(F)(F)C(F)(F)C(F)(F)F)C(F)(F)C(F)(F)C(F)(F)C(F)(F)F.[Mg]` [Synthesis Example 4, perfluoro(3-dibutylaminopropionic acid) magnesium], the “solubility of the present compound in water” value is recorded as 0.009 g/100 g-H2O.

Consider `O=C(O)C(F)(F)C(F)(F)N(C(F)(F)C(F)(F)C(F)(F)C(F)(F)F)C(F)(F)C(F)(F)C(F)(F)C(F)(F)F.[Ba]` [Synthesis Example 5, perfluoro(3-dibutylaminopropionic acid) barium], for which the “solubility of the present compound in water” value is listed as 0.04 g/100 g-H2O.

Source of the values: US10208210B2, “Hydrophilic oil repellent and production method of same, surface coating material, coating film, resin composition, oil-water separation filter material, and porous body” (MITSUBISHI MATERIALS CORPORATION, priority 2014, dated 2019).
